According to ChEMBL document CHEMBL1201862, “PubChem BioAssay data set” (2004):
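Method: 48-hour compound exposure of cells in 96-well plates, five concentrations, linear interpolation of endpoints. Here, GI50 denotes the concentration required for 50% inhibition of growth.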 Activity calls are given as the source filed them. No stated cut-off is given here; in the data, active = GI50 up to about 1.1 µM and inactive = higher.

What was measured:
Test in all cases: inhibition of tumour cell growth, NCI panel, 48 h
786-0 = test system: 786-0
OVCAR-5 = test system: OVCAR-5
NCI-H226 = test system: NCI-H226
HOP-62 = test system: HOP-62
UACC-62 = test system: UACC-62
SK-OV-3 = test system: SK-OV-3
MCF7 = test system: MCF7
MDA-MB-231 = test system: MDA-MB-231
CCRF-CEM = test system: CCRF-CEM
EKVX = test system: EKVX
UACC-257 = test system: UACC-257
SNB-75 = test system: SNB-75
Hs-578T = test system: Hs-578T
ACHN = test system: ACHN
OVCAR-4 = test system: OVCAR-4
NCI-H522 = test system: NCI-H522
RPMI-8226 = test system: RPMI-8226
SK-MEL-5 = test system: SK-MEL-5
SF-295 = test system: SF-295
UO-31 = test system: UO-31

Compound	GI50 (786-0)	GI50 (OVCAR-5)	GI50 (NCI-H226)	GI50 (HOP-62)	GI50 (UACC-62)	GI50 (SK-OV-3)	GI50 (MCF7)	GI50 (MDA-MB-231)	GI50 (CCRF-CEM)	GI50 (EKVX)	GI50 (UACC-257)	GI50 (SNB-75)	GI50 (Hs-578T)	GI50 (ACHN)	GI50 (OVCAR-4)	GI50 (NCI-H522)	GI50 (RPMI-8226)	GI50 (SK-MEL-5)	GI50 (SF-295)	GI50 (UO-31)
CCOc1cnc(C(O)(c2ccccc2)c2ccccc2)o1	> 100 µM (inactive)	> 100 µM (inactive)	> 100 µM (inactive)	> 100 µM (inactive)	> 100 µM (inactive)	> 100 µM (inactive)	> 100 µM (inactive)	> 100 µM (inactive)	> 100 µM (inactive)	> 100 µM (inactive)	> 100 µM (inactive)	> 100 µM (inactive)	> 100 µM (inactive)	> 100 µM (inactive)	> 100 µM (inactive)	> 100 µM (inactive)	> 100 µM (inactive)	> 100 µM (inactive)	> 100 µM (inactive)	> 100 µM (inactive)
Nc1nc(Cl)cc(NCC2(CO)CC(O)C2)n1 (stereo not given)	> 100 µM (inactive)	> 100 µM (inactive)	> 100 µM (inactive)	> 100 µM (inactive)	> 100 µM (inactive)	> 100 µM (inactive)	> 100 µM (inactive)	> 100 µM (inactive)	> 100 µM (inactive)	> 100 µM (inactive)	> 100 µM (inactive)	> 100 µM (inactive)	> 100 µM (inactive)	> 100 µM (inactive)	> 100 µM (inactive)	> 100 µM (inactive)	> 100 µM (inactive)	> 100 µM (inactive)	> 100 µM (inactive)	> 100 µM (inactive)
COc1ccc2nc(C)cc(NCCCCCCCCCNc3cc(C)nc4ccc(OC)cc34)c2c1	1.03 µM (active)	2.55 µM (inactive)	6.18 µM (inactive)	2.26 µM (inactive)	2.83 µM (inactive)	8.79 µM (inactive)	1.21 µM (inactive)	1.27 µM (inactive)	1.27 µM (inactive)	3.4 µM (inactive)	13.7 µM (inactive)	4.14 µM (inactive)	1.64 µM (inactive)	8.87 µM (inactive)	2.19 µM (inactive)	0.834 µM (active)	1.11 µM (active)	1.71 µM (inactive)	1.11 µM (active)	13.6 µM (inactive)
CCOC(=O)C(NC(=O)CC)(Nc1ccc(S(=O)(=O)Nc2onc(C)c2C)cc1)C(F)(F)F (stereo not given)	> 100 µM (inactive)	> 100 µM (inactive)	> 100 µM (inactive)	> 100 µM (inactive)	> 100 µM (inactive)	> 100 µM (inactive)	> 100 µM (inactive)	> 100 µM (inactive)	> 100 µM (inactive)	> 100 µM (inactive)	> 100 µM (inactive)	14.9 µM (inactive)	> 100 µM (inactive)	> 100 µM (inactive)	> 100 µM (inactive)	> 100 µM (inactive)	> 100 µM (inactive)	> 100 µM (inactive)	> 100 µM (inactive)	> 100 µM (inactive)
C/C1=C\CC[C@@]2(C)O[C@@H]2C[C@@H](C2(C)CO2)CC/C(C)=C/CC1 (stereo not given in full)	16.8 µM (inactive)	22.3 µM (inactive)	15.2 µM (inactive)	30.3 µM (inactive)	16 µM (inactive)	49.3 µM (inactive)	21.7 µM (inactive)	18.5 µM (inactive)	19.8 µM (inactive)	13.8 µM (inactive)	36.8 µM (inactive)	26.2 µM (inactive)	19.5 µM (inactive)	17.9 µM (inactive)	37.4 µM (inactive)	23.7 µM (inactive)	31 µM (inactive)	21.7 µM (inactive)	22.1 µM (inactive)	25.2 µM (inactive)
C[n+]1c(-c2ccc(/C=C/C=N\NC(=O)c3ccc(C(=O)N/N=C\C=C\c4ccc(-c5cn6ccccc6[n+]5C)cc4)cc3)cc2)cn2ccccc21	30.3 µM (inactive)	> 100 µM (inactive)	> 100 µM (inactive)	> 100 µM (inactive)	> 100 µM (inactive)	> 100 µM (inactive)	> 94.8 µM (inactive)	> 43.3 µM (inactive)	23.9 µM (inactive)	> 100 µM (inactive)	> 100 µM (inactive)	> 100 µM (inactive)	> 100 µM (inactive)	> 100 µM (inactive)	> 81.7 µM (inactive)	> 100 µM (inactive)	38.1 µM (inactive)	> 84.5 µM (inactive)	> 100 µM (inactive)	> 100 µM (inactive)
O=C(O)c1c(CC(Cc2ccccc2)C(=O)O)ccc2c1CCC2 (stereo not given)	> 100 µM (inactive)	> 100 µM (inactive)	> 100 µM (inactive)	> 100 µM (inactive)	4.11 µM (inactive)	> 100 µM (inactive)	> 100 µM (inactive)	> 100 µM (inactive)	> 100 µM (inactive)	> 100 µM (inactive)	> 100 µM (inactive)	> 100 µM (inactive)	> 100 µM (inactive)	> 100 µM (inactive)	> 100 µM (inactive)	> 100 µM (inactive)	> 100 µM (inactive)	> 100 µM (inactive)	> 100 µM (inactive)	> 100 µM (inactive)
